Source: ChEMBL document CHEMBL5316329, “Structure-Based Optimization of 2,4,5-Trisubstituted Pyrimidines as Potent HIV-1 Non-Nucleoside Reverse Transcriptase Inhibitors: Exploiting the Tolerant Regions of the Non-Nucleoside Reverse Transcriptase Inhibitors' Binding Pocket” (J Med Chem, 2023)

Key:
[1] = system: Human immunodeficiency virus 1; test: Antiviral activity against HIV-1 harboring Y181C mutant infected in human MT4 cells assessed as virus-induced cytopathicity treated for 5 days by MTT assay; type: functional, organism-based; conditions: Human immunodeficiency virus 1, MT4, 120 h
[2] = target: T1, Cytochrome P450 1A2 (Homo sapiens, UniProt P05177); test: Inhibition of CYP1A2 (unknown origin); type: ADME
T1 sequence (P05177 whole entry): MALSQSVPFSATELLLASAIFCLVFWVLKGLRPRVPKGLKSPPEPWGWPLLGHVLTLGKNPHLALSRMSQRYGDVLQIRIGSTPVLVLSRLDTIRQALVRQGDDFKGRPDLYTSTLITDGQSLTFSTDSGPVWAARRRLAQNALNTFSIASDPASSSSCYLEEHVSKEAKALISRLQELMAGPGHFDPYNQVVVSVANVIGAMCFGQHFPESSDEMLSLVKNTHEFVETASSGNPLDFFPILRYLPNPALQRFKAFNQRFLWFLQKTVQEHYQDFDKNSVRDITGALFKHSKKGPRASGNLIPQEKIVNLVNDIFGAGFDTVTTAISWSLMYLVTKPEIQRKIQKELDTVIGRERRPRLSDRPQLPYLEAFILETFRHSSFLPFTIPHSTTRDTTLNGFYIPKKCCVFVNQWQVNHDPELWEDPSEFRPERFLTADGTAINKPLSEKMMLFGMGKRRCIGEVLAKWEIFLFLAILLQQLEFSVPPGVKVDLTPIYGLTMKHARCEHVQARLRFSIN

[3] = AUC (0 to infinity) in Sprague-Dawley rat at 10 mg/kg, po; type: ADME, organism-based; design: dose 10 mg/kg, route po; conditions: in vivo
[4] = target: Cytochrome P450 3A4 (Homo sapiens, UniProt P08684); test: Inhibition of CYP3A4 (unknown origin) using midazolam as substrate; type: ADME
[5] = target: Cytochrome P450 2C19 (Homo sapiens, UniProt P33261); test: Inhibition of CYP2C19 (unknown origin); type: ADME
[6] = AUC (0 to infinity) in Sprague-Dawley rat at 2 mg/kg, iv; type: ADME, organism-based; design: dose 2 mg/kg, route iv; conditions: in vivo
[7] = system: Human immunodeficiency virus 1; test: Antiviral activity against HIV-1 harboring K103N/Y181C mutant infected in human MT4 cells assessed as virus-induced cytopathicity treated for 5 days by MTT assay; type: functional, organism-based; conditions: Human immunodeficiency virus 1, MT4, 120 h
[8] = Half life in Sprague-Dawley rat at 10 mg/kg, po; type: ADME, organism-based; conditions: in vivo
[9] = Acute toxicity in Kunming mouse assessed as poisoning symptoms at 2000 mg/kg, po measured after 7 days; type: organism-based; conditions: in vivo, 168 h, time 7 day
[10] = system: Human immunodeficiency virus 1; test: Antiviral activity against HIV-1 harboring Y188L mutant infected in human MT4 cells assessed as virus-induced cytopathicity treated for 5 days by MTT assay; type: functional, organism-based; conditions: Human immunodeficiency virus 1, MT4, 120 h
[11] = Clearance in Sprague-Dawley rat at 2 mg/kg, iv; type: ADME, organism-based; conditions: in vivo
[12] = Half life in Sprague-Dawley rat at 2 mg/kg, iv; type: ADME, organism-based; conditions: in vivo
[13] = Selectivity index, ratio of CC50 for human MT4 cells to EC50 for NNRTI-resistant HIV-1 RES056 infected in human MT4 cells; type: toxicity, cell-based; conditions: read-out: Selectivity Index
[14] = Cmax in Sprague-Dawley rat at 2 mg/kg, iv; type: ADME, organism-based; design: dose 2 mg/kg, route iv; conditions: in vivo
[15] = Acute toxicity in Kunming mouse assessed as mortality at 2000 mg/kg, po measured after 7 days; type: organism-based; conditions: in vivo, 168 h, time 7 day
[16] = Acute toxicity in Kunming mouse assessed as body weight change at 2000 mg/kg, po measured after 7 days; type: organism-based; conditions: in vivo, 168 h, time 7 day
[17] = Cytotoxicity against human MT4 cells assessed as reduction in cell viability treated for 5 days by MTT assay; type: toxicity, cell-based; conditions: time 5 day
[18] = target: Cytochrome P450 2D6 (Homo sapiens, UniProt P10635); test: Inhibition of CYP2D6 (unknown origin); type: ADME
[19] = Oral bioavailability in Sprague-Dawley rat at 10 mg/kg; type: ADME, organism-based; conditions: in vivo
[20] = system: Human immunodeficiency virus 1; test: Antiviral activity against HIV-1 E138K mutant infected in human MT4 cells assessed as virus-induced cytopathicity treated for 5 days by MTT assay; type: functional, organism-based; conditions: Human immunodeficiency virus 1, MT4, 120 h
[21] = AUC (0 to t) in Sprague-Dawley rat at 10 mg/kg, po; type: ADME, organism-based; design: dose 10 mg/kg, route po; conditions: in vivo
[22] = system: Human immunodeficiency virus 1; test: Antiviral activity against NNRTI-resistant HIV-1 RES056 infected in human MT4 cells assessed as virus-induced cytopathicity treated for 5 days by MTT assay; type: functional, organism-based; conditions: Human immunodeficiency virus 1, RES056, MT4, 120 h
[23] = system: Human immunodeficiency virus 1; test: Antiviral activity against HIV-1 harboring L100I mutant infected in human MT4 cells assessed as virus-induced cytopathicity treated for 5 days by MTT assay; type: functional, organism-based; conditions: Human immunodeficiency virus 1, MT4, 120 h
[24] = system: Human immunodeficiency virus 1; test: Antiviral activity against wild-type HIV-1 IIIB infected in human MT4 cells assessed as virus-induced cytopathicity treated for 5 days by MTT assay; type: functional, organism-based; conditions: Human immunodeficiency virus 1, IIIB, MT4, 120 h
[25] = AUC (0 to t) in Sprague-Dawley rat at 2 mg/kg, iv; type: ADME, organism-based; design: dose 2 mg/kg, route iv; conditions: in vivo
[26] = Tmax in Sprague-Dawley rat at 10 mg/kg, po; type: ADME, organism-based; conditions: in vivo
[27] = Selectivity index, ratio of CC50 for human MT4 cells to EC50 for wild-type HIV-1 IIIB infected in human MT4 cells; type: toxicity, cell-based; conditions: read-out: Selectivity Index
[28] = Cmax in Sprague-Dawley rat at 10 mg/kg, po; type: ADME, organism-based; design: dose 10 mg/kg, route po; conditions: in vivo
[29] = target: Cytochrome P450 2C9 (Homo sapiens, UniProt P11712); test: Inhibition of CYP2C9 (unknown origin); type: ADME
[30] = target: Human immunodeficiency virus type 1 reverse transcriptase (Human immunodeficiency virus 1, UniProt Q72547); test: Inhibition of wild-type HIV-1 reverse transcriptase assessed as inhibition of biotin-dUTP incorporation
[31] = system: Human immunodeficiency virus 1; test: Antiviral activity against HIV-1 F227L/V106A mutant infected in human MT4 cells assessed as virus-induced cytopathicity treated for 5 days by MTT assay; type: functional, organism-based; conditions: Human immunodeficiency virus 1, MT4, 120 h
[32] = system: Human immunodeficiency virus 1; test: Antiviral activity against HIV-1 harboring K103N mutant infected in human MT4 cells assessed as virus-induced cytopathicity treated for 5 days by MTT assay; type: functional, organism-based; conditions: Human immunodeficiency virus 1, MT4, 120 h
[33] = Tmax in Sprague-Dawley rat at 2 mg/kg, iv; type: ADME, organism-based; conditions: in vivo

Sequence of Cytochrome P450 2C19 (P33261 whole entry): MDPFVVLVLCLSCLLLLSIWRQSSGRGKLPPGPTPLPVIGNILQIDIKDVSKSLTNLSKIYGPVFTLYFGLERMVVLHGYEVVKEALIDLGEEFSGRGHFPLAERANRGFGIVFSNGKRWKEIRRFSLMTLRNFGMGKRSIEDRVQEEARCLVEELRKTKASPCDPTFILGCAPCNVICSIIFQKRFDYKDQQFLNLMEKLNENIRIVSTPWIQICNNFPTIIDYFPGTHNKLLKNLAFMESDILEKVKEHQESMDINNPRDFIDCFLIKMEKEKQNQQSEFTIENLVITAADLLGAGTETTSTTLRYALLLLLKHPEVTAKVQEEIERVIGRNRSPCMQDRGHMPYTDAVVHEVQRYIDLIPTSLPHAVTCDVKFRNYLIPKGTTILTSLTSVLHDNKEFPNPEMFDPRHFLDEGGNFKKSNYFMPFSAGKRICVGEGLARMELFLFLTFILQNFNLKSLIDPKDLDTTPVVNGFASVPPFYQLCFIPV
Sequence of Cytochrome P450 2C9 (P11712 whole entry): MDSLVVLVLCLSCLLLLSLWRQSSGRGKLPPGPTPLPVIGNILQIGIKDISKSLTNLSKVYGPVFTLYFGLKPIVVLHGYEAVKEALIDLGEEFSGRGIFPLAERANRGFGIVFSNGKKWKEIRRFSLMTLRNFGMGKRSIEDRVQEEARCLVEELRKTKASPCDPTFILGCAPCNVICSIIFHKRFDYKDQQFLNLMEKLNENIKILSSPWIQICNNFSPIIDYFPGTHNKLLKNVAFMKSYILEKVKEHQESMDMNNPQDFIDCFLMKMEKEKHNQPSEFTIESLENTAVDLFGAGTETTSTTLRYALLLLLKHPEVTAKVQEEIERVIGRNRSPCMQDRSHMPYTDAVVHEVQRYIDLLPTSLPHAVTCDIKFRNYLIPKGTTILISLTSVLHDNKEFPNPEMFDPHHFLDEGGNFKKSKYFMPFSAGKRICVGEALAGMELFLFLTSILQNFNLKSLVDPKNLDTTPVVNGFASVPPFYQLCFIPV
Sequence of Cytochrome P450 2D6 (P10635 whole entry): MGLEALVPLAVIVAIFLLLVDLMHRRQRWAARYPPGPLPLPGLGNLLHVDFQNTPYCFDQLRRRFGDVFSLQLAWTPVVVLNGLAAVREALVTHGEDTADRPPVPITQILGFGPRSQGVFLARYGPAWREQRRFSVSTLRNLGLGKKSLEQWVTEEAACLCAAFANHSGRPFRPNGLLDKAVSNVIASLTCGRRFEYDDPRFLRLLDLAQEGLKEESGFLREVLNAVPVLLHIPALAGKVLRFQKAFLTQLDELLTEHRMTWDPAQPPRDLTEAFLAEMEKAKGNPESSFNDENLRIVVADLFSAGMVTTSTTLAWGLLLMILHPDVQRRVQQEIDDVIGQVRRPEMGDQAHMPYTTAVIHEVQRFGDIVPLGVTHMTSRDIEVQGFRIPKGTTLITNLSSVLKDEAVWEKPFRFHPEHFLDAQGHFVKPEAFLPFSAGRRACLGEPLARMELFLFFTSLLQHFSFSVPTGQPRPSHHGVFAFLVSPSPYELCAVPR
Sequence of Cytochrome P450 3A4 (P08684 whole entry): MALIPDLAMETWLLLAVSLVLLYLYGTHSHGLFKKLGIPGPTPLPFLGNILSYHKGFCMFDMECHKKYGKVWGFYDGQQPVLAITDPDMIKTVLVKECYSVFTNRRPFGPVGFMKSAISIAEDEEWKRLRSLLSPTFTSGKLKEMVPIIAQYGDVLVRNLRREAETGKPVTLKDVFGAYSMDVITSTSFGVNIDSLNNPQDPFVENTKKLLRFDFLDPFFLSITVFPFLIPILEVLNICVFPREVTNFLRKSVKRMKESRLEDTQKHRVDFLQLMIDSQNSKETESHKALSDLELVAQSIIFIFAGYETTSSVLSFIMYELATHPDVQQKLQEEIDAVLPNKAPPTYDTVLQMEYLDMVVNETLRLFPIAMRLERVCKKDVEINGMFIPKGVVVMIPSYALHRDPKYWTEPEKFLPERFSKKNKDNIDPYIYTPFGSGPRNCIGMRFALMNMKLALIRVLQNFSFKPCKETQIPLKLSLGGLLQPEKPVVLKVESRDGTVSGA

## Cc1cc(/C=C/C#N)cc(C)c1Cc1nc(NC2CCN(Cc3ccc(C(N)=O)cc3)CC2)ncc1-c1cncnc1
[1]; read-out: EC50
  EC50: 0.00588 µM
[1]; read-out: pEC50 (converted)
  EC50: 0.00589 µM
[2]
  IC50: > 50 µM
[3]
  AUC(0-inf): 642 ng·h/mL
[4]
  IC50: 10.9 µM
[5]
  IC50: > 50 µM
[6]
  AUC(0-inf): 403 ng·h/mL
[7]
  EC50: 0.01 µM
[8]
  half-life: 1.2 h
[9]
  Activity: Non-Toxic
[10]; read-out: EC50
  EC50: 0.0153 µM
[10]; read-out: pEC50 (converted)
  EC50: 0.0155 µM
[11]
  clearance: 82.7 mL/min/kg
[12]
  half-life: 1.33 h
[13]
  selectivity ratio: 2270
[14]
  Cmax: 587 ng/mL
[15]
  Activity: Non-Toxic
[16]
  Activity: Non-Toxic
[17]
  CC50 at 120 h: 22.8 µM
[18]
  IC50: 42.5 µM
[19]
  bioavailability: 31.8%
[20]; read-out: EC50
  EC50: 0.00949 µM
[20]; read-out: pEC50 (converted)
  EC50: 0.00955 µM
[21]
  AUC(0-t): 654 ng·h/mL
[22]
  EC50: 0.0101 µM
[23]; read-out: EC50
  EC50: 0.00343 µM
[23]; read-out: pEC50 (converted)
  EC50: 0.00347 µM
[24]
  EC50: 0.00495 µM
[25]
  AUC(0-t): 400 ng·h/mL
[26]
  Tmax: 2 h
[27]
  selectivity ratio: 4630
[28]
  Cmax: 252 ng/mL
[29]
  IC50: 18.9 µM
[30]
  EC50: 0.0049 µM
  IC50: 0.121 µM
[31]; read-out: EC50
  EC50: 0.0118 µM
[31]; read-out: pEC50 (converted)
  EC50: 0.012 µM
[32]; read-out: EC50
  EC50: 0.00477 µM
[32]; read-out: pEC50 (converted)
  EC50: 0.00479 µM
[33]
  Tmax: 1.98 min
